The values below come from PubChem BioAssay (NCI).

In general, TGI refers to the concentration giving total growth inhibition. Read a low TGI as more potent growth arrest. The GI50 is the concentration giving 50% growth inhibition.

Test systems include OVCAR-3 ovarian; DLD-1 colon; SN12C renal; DMS 273 small cell lung; HT29 colon; SNB-19 CNS; SK-MEL-2 melanoma; DMS 114 small cell lung; M19-MEL melanoma; LXFL 529 NSCLC; ACHN renal; MDA-N.
Common to all, as to test: DTP human tumour cell line panel, 48 h

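Method: 48-hour compound exposure of cells in 96-well plates, five concentrations, linear interpolation of endpoints. GI50: concentration for 50% inhibition of growth. TGI: total growth inhibition.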 Some results are limits rather than exact numbers.

As for `Clc1ccc2c(Cl)nc(-c3ccccc3)nc2c1`, the TGI in the assay with OVCAR-3 ovarian was 50.1 µM; in the assay on DLD-1 colon it was more than 100 µM; in the assay with SN12C renal it was more than 100 µM; in the assay with DMS 273 small cell lung it was more than 100 µM; in the assay with HT29 colon, more than 100 µM; in the assay on SNB-19 CNS it was more than 100 µM. Moreover, the TGI with SK-MEL-2 melanoma was 95 µM; in the assay with DMS 114 small cell lung, 74 µM; with M19-MEL melanoma, more than 100 µM; in the assay with LXFL 529 NSCLC it was more than 100 µM; in the assay with ACHN renal, more than 100 µM.

With `Cc1cc(=O)[nH]c(NN2C(Cl)C(=O)C2c2c(O)ccc3ccccc23)n1` (configuration not stated), the TGI turned out to be 64.9 µM in the assay with OVCAR-3 ovarian; 69.5 µM in the assay on SN12C renal; 33.1 µM in the assay with DMS 273 small cell lung; 74 µM in the assay with HT29 colon; 77.6 µM with SNB-19 CNS; 30.2 µM in the assay on SK-MEL-2 melanoma. The TGI was 56 µM with DMS 114 small cell lung, more than 100 µM with M19-MEL melanoma, 30.3 µM in the assay with LXFL 529 NSCLC and more than 100 µM in the assay on ACHN renal.

In the case of `Cc1n(-c2ccccc2)c2c([n+]1Cc1ccc([N+](=O)[O-])cc1)C(=O)c1ccccc1C2=O`, the TGI turned out to be 0.854 µM with OVCAR-3 ovarian; 19.4 µM in the assay on DLD-1 colon; 3.08 µM in the assay on SN12C renal; 3.87 µM with DMS 273 small cell lung; 6.43 µM in the assay on HT29 colon; 3.22 µM in the assay with SNB-19 CNS. Moreover, the TGI came to 2.97 µM with SK-MEL-2 melanoma; 1.49 µM with DMS 114 small cell lung; 3.16 µM with MDA-N; 2.93 µM with M19-MEL melanoma; 2.76 µM in the assay on LXFL 529 NSCLC; 13.9 µM in the assay with ACHN renal.

Regarding `NC(N)=NCCCC(NCc1c2ccccc2[n+]([O-])c2ccccc12)C(=O)O` (configuration not stated), the TGI with OVCAR-3 ovarian, in the assay on DLD-1 colon, with SN12C renal, in the assay on DMS 273 small cell lung, in the assay with HT29 colon and with SNB-19 CNS was more than 100 µM each time. The TGI with SK-MEL-2 melanoma, in the assay with DMS 114 small cell lung, with LXFL 529 NSCLC and with ACHN renal was more than 100 µM in each case.

Consider `CCCC(=O)[O-].CCCC(=O)[O-].N.N.N.N.[Co+3].[O-][Cl+3]([O-])([O-])[O-]`, for which the TGI in the assay on OVCAR-3 ovarian, in the assay with DLD-1 colon, with SN12C renal, with HT29 colon, in the assay with SNB-19 CNS and in the assay with SK-MEL-2 melanoma was more than 100 µM in each case. In addition, the TGI in the assay with LXFL 529 NSCLC and with ACHN renal was more than 100 µM in each case. The GI50 in the assay on DLD-1 colon and in the assay on LXFL 529 NSCLC was more than 100 µM in each case.

`Cc1n(CC(C)C)c2c([n+]1CC(=O)c1ccc([N+](=O)[O-])cc1)C(=O)c1ccccc1C2=O`: the TGI was 0.797 µM in the assay with DLD-1 colon; 0.0107 µM in the assay with SN12C renal; 0.161 µM with DMS 273 small cell lung; 0.55 µM in the assay with HT29 colon; 0.104 µM in the assay with SNB-19 CNS; 0.0837 µM in the assay on SK-MEL-2 melanoma. This molecule also displayed a TGI in the assay on M19-MEL melanoma of less than 0.0175 µM.

Turning to `COc1cc(O)c2c(c1O)C(=O)c1cc(C)ncc1C2=O`, the TGI is 45.9 µM in the assay with OVCAR-3 ovarian; more than 50 µM with DLD-1 colon; more than 50 µM in the assay on SN12C renal; more than 50 µM in the assay on HT29 colon; more than 50 µM in the assay on SNB-19 CNS; more than 50 µM with SK-MEL-2 melanoma. Besides, the TGI is more than 50 µM in the assay on DMS 114 small cell lung, 23.8 µM in the assay on M19-MEL melanoma, more than 50 µM with LXFL 529 NSCLC and more than 50 µM in the assay on ACHN renal.

Turning to `CCCCCCCSCC1OC(n2cnc3c(N)ncnc32)C(O)C1O` (configuration not stated), the TGI in the assay with DLD-1 colon is 28.7 µM; in the assay on SN12C renal, 65.4 µM; with DMS 273 small cell lung, 54.2 µM; with HT29 colon it was 4.51 µM; in the assay on SNB-19 CNS, more than 100 µM; with SK-MEL-2 melanoma, 44.8 µM. For the same molecule, the TGI was 71.1 µM with DMS 114 small cell lung, 29.8 µM with LXFL 529 NSCLC and more than 100 µM with ACHN renal.

Consider `C=CCCCCn1c2ccccc2c2c(C)c3c[n+](C)ccc3c(C)c21`, for which the TGI in the assay with OVCAR-3 ovarian worked out at 1.52 µM; with DLD-1 colon, 2.52 µM; in the assay on HT29 colon, 1.75 µM; in the assay on SNB-19 CNS, 1.73 µM; in the assay on SK-MEL-2 melanoma, 1.52 µM; in the assay with DMS 114 small cell lung, 0.811 µM. Moreover, the TGI in the assay on M19-MEL melanoma came out at 1.41 µM; in the assay with LXFL 529 NSCLC, 1.32 µM; with ACHN renal, 12.8 µM.

Turning to `Oc1c2c(c3c4c1N=CC=4CCN=3)C1(C=C(Br)C(O)C(Br)=C1)CCN2` (configuration not stated), the TGI with OVCAR-3 ovarian is 3.12 µM; in the assay with DLD-1 colon it was 3.95 µM; with SN12C renal, 3.44 µM; with DMS 273 small cell lung it was 3.45 µM; in the assay on HT29 colon it was 2.15 µM; in the assay on SNB-19 CNS it was more than 34.8 µM. For the same molecule, the TGI in the assay on SK-MEL-2 melanoma turned out to be 11.8 µM; with DMS 114 small cell lung, 0.718 µM; in the assay with M19-MEL melanoma, 1.05 µM.
